According to patent US11540542B2, “Taste modulating aldehydes” (TAKASAGO INTERNATIONAL CORPORATION, priority 2016, dated 2023):

Tested on: trained experts
Assay: Monkfruit juice beverage taste comparison, trained experts
Details: 0.000001% cut of 1% 2,6-nonadienal in ethyl acetate, used at 0.10% in Monkfruit beverage (juice concentrate 0.15%); three trained experts
Procedure: A taste comparison was conducted by combining and mixing 0.000001% cut of 1% 2,6-nonadienal (I % in ethanol) in ethyl acetate and used that dilution at 0.10% in a Monkfruit beverage in water, wherein Monkfruit juice concentrate was present at 0.15%. Three trained experts evaluated the combination against a control of Monkfruit juice without the taste modulation compound.

CCC=CCCC=CC=O [2,6-nonadienal]
modulation of off-notes of Monkfruit juice versus control: demonstrated a modulation of the off-notes
